Test results published in patent US10710986B2, “PD-1/PD-L1 inhibitors” (Gilead Sciences, Inc., priority 2018, dated 2020).

Biological target: PD-1/PD-L1 (Homo sapiens (Human), UniProt Q9NZQ7)
Assay: PD-1/PD-L1 biochemical protein-protein interaction assay (ALPHA)
Conditions: 0.3 nM His tagged PD-L1, 2.5 nM biotinylated Fc-PD-1, 60 minutes at 25° C., read-out: IC50 PD-L1-PD1

PD-1/PD-L1, sequence (Q9NZQ7 19-238): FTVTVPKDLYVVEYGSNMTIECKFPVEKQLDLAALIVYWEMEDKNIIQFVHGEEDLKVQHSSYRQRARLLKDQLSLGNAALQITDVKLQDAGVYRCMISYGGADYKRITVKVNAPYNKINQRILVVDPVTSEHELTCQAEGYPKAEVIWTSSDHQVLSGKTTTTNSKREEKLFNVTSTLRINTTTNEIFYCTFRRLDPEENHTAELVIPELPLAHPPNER

SMILES | IC50
COc1nc(-c2cccc(-c3cccc(-c4cnc(CN)c(OC)n4)c3Cl)c2Cl)cnc1CN [compound 135] | 0.733 nM
COc1nc(-c2cccc(-c3cccc(-c4cnc(CNCCO)c(OC)n4)c3Cl)c2Cl)cnc1CNCCO [compound 140] | 0.26 nM
COc1nc(-c2cccc(-c3cccc(-c4cnc(CN5CC[C@](C)(O)C5)c(OC)n4)c3Cl)c2Cl)cnc1CN1CC[C@](C)(O)C1 [compound 142] | 0.2 nM
COc1nc(-c2cccc(-c3cccc(-c4cnc(CN[C@@H]5CCOC5)c(OC)n4)c3Cl)c2Cl)cnc1CN[C@@H]1CCOC1 [compound 143] | 0.41 nM
COc1nc(-c2cccc(-c3cccc(-c4cnc(CN[C@H]5CCOC5)c(OC)n4)c3Cl)c2Cl)cnc1CN[C@H]1CCOC1 [compound 144] | 0.24 nM
COc1nc(-c2cccc(-c3cccc(-c4cnc(CN[C@H]5C[C@H](CO)C5)c(OC)n4)c3Cl)c2Cl)cnc1CN[C@H]1C[C@H](CO)C1 [compound 149] | 0.27 nM
COc1nc(-c2cccc(-c3cccc(-c4cnc(CN[C@H]5C[C@@H](CO)C5)c(OC)n4)c3Cl)c2Cl)cnc1CN[C@H]1C[C@@H](CO)C1 [compound 150] | 0.2 nM
COc1nc(-c2cccc(-c3cccc(-c4ccc(CN5CC6(CCC(=O)N6)C5)c(C#N)c4)c3Cl)c2Cl)cnc1CNC[C@@H]1CCC(=O)N1 [compound 151] | 0.684 nM
COc1nc(-c2cccc(-c3cccc(-c4ccc(CN5CC(O)C5)c(C#N)c4)c3Cl)c2Cl)cnc1CNC[C@@H]1CCC(=O)N1 [compound 153] | 0.396 nM
COc1nc(-c2cccc(-c3cccc(-c4cnc(CNC[C@@H]5CCC(=O)N5)c(OC)n4)c3Cl)c2Cl)ccc1CNCc1ccc2[nH]c(C)cc2c1 [compound 155] | 1.65 nM
COc1nc(-c2cccc(-c3cccc(-c4cnc(CNC[C@@H]5CCC(=O)N5)c(OC)n4)c3Cl)c2Cl)ccc1CN1CCC(C(N)=O)CC1 [compound 163] | 0.177 nM
COc1nc(-c2cccc(-c3cccc(-c4cnc(CNC[C@@H]5CCC(=O)N5)c(OC)n4)c3Cl)c2Cl)ccc1CN[C@@H]1COC[C@H]1O [compound 165] | 0.187 nM
COc1nc(-c2cccc(-c3cccc(-c4cnc(CNC[C@@H]5CCC(=O)N5)c(OC)n4)c3Cl)c2Cl)ccc1CN[C@H]1CNC(=O)C1 [compound 166] | 0.233 nM
COc1nc(-c2cccc(-c3cccc(-c4cnc(CNC[C@@H]5CCC(=O)N5)c(OC)n4)c3Cl)c2Cl)ccc1CN[C@@H]1CNC(=O)C1 [compound 167] | 0.262 nM
COc1nc(-c2cccc(-c3cccc(-c4cnc(CNC[C@@H]5CCC(=O)N5)c(OC)n4)c3Cl)c2Cl)ccc1CN1CC2(CNC(=O)N2)C1 [compound 168] | 0.196 nM
COc1nc(-c2cccc(-c3cccc(-c4cnc(CNC[C@@H]5CCC(=O)N5)c(OC)n4)c3Cl)c2Cl)ccc1CN[C@H]1CCNC1=O [compound 169] | 0.344 nM
COc1nc(-c2cccc(-c3cccc(-c4cnc(CNC[C@@H]5CCC(=O)N5)c(OC)n4)c3Cl)c2Cl)ccc1CN[C@@H]1CCOC1 [compound 170] | 0.227 nM
COc1nc(-c2cccc(-c3cccc(-c4cnc(CNC[C@@H]5CCC(=O)N5)c(OC)n4)c3Cl)c2Cl)ccc1CN[C@H]1CCOC1 [compound 171] | 0.208 nM
COc1nc(-c2cccc(-c3cccc(-c4cnc(CNC[C@H]5C[C@@H](O)C5)c(OC)n4)c3Cl)c2Cl)cnc1CNC[C@@H]1CCC(=O)N1 [compound 172] | 0.222 nM
COc1nc(-c2cccc(-c3cccc(-c4cnc(CN5CC(OC)C5)c(OC)n4)c3Cl)c2Cl)cnc1CNC[C@@H]1CCC(=O)N1 [compound 173] | 0.209 nM
COc1nc(-c2cccc(-c3cccc(-c4cnc(CN5CCC(C)(O)C5)c(OC)n4)c3Cl)c2Cl)cnc1CNC[C@@H]1CCC(=O)N1 (stereo partly drawn) [compound 174] | 0.219 nM
COc1nc(-c2cccc(-c3cccc(-c4cnc(CNC5CCC(F)C5)c(OC)n4)c3Cl)c2Cl)cnc1CNC[C@@H]1CCC(=O)N1 (stereo partly drawn) [compound 177] | 0.33 nM
COc1nc(-c2cccc(-c3cccc(-c4cnc(CN[C@@H]5C[C@@H]5F)c(OC)n4)c3Cl)c2Cl)cnc1CNC[C@@H]1CCC(=O)N1 [compound 178] | 0.553 nM
COc1nc(-c2cccc(-c3cccc(-c4cnc(CNC[C@@H]5CCC(=O)N5)c(OC)n4)c3Cl)c2Cl)cnc1CNCC1CC1 [compound 179] | 0.211 nM
COc1nc(-c2cccc(-c3cccc(-c4cnc(CN[C@@H]5C[C@@H]5C(F)F)c(OC)n4)c3Cl)c2Cl)cnc1CNC[C@@H]1CCC(=O)N1 [compound 180] | 1.03 nM
COc1nc(-c2cccc(-c3cccc(-c4cnc(CNC(C)(C)C(F)F)c(OC)n4)c3Cl)c2Cl)cnc1CNC[C@@H]1CCC(=O)N1 [compound 181] | 1.51 nM
COc1nc(-c2cccc(-c3cccc(-c4cnc(CNC5CC5)c(OC)n4)c3Cl)c2Cl)cnc1CNC[C@@H]1CCC(=O)N1 [compound 184] | 0.763 nM
COCC1(NCc2ncc(-c3cccc(-c4cccc(-c5cnc(CNC[C@@H]6CCC(=O)N6)c(OC)n5)c4Cl)c3Cl)nc2OC)CCC1 [compound 185] | 0.48 nM
COc1nc(-c2cccc(-c3cccc(-c4cnc(CN5C[C@H]6C[C@H]6[C@H]5CO)c(OC)n4)c3Cl)c2Cl)cnc1CNC[C@@H]1CCC(=O)N1 [compound 187] | 0.28 nM
COc1nc(-c2cccc(-c3cccc(-c4cnc(CNC5CC6(C5)CN(C(C)=O)C6)c(OC)n4)c3Cl)c2Cl)cnc1CNC1CC2(C1)CN(C(C)=O)C2 (stereo not drawn) [compound 190] | 0.2 nM

Stronger by IC50, values ahead:

IC50 | SMILES
0.147 nM | COc1nc(-c2cccc(-c3cccc(-c4cnc(CN5CC6(CCC(=O)N6)C5)c(OC)n4)c3Cl)c2Cl)cnc1CN1CC2(CCC(=O)N2)C1 [compound 136]
0.168 nM | COc1nc(-c2cccc(-c3cccc(-c4cnc(CNC[C@@H](O)CC(=O)O)c(OC)n4)c3Cl)c2Cl)cnc1CNC[C@@H](O)CC(=O)O [compound 137]
0.064 nM | COc1nc(-c2cccc(-c3cccc(-c4cnc(C5=NCCN5)c(OC)n4)c3Cl)c2Cl)cnc1C1=NCCN1 [compound 141]
0.1 nM | COc1nc(-c2cccc(-c3cccc(-c4cnc(CN5CC(CO)C5)c(OC)n4)c3Cl)c2Cl)cnc1CN1CC(CO)C1 [compound 145]
0.13 nM | COc1nc(-c2cccc(-c3cccc(-c4cnc(CN5CCC(C)(O)C5)c(OC)n4)c3Cl)c2Cl)cnc1CN1CCC(C)(O)C1 (stereo not drawn) [compound 146]
0.06 nM | COc1nc(-c2cccc(-c3cccc(-c4cnc(CN5CC(C)(O)C5)c(OC)n4)c3Cl)c2Cl)cnc1CN1CC(C)(O)C1 [compound 147]
0.06 nM | COc1nc(-c2cccc(-c3cccc(-c4cnc(CN5CC(C)(CO)C5)c(OC)n4)c3Cl)c2Cl)cnc1CN1CC(C)(CO)C1 [compound 148]
0.073 nM | COc1nc(-c2cccc(-c3cccc(-c4ccc(CNC[C@@H]5CCC(=O)N5)c(C#N)c4)c3Cl)c2Cl)cnc1CNC[C@@H]1CCC(=O)N1 [compound 152]
0.126 nM | COc1nc(-c2cccc(-c3cccc(-c4ccc(CN5CC(C)(CO)C5)c(C#N)c4)c3Cl)c2Cl)cnc1CNC[C@@H]1CCC(=O)N1 [compound 154]
0.084 nM | COc1nc(-c2cccc(-c3cccc(-c4cnc(CNC[C@@H]5CCC(=O)N5)c(OC)n4)c3Cl)c2Cl)ccc1CN1CC(C)(CO)C1 [compound 156]
0.064 nM | COc1nc(-c2cccc(-c3cccc(-c4cnc(CNC[C@@H]5CCC(=O)N5)c(OC)n4)c3Cl)c2Cl)ccc1CN1CC(CO)C1 [compound 157]
0.162 nM | COc1nc(-c2cccc(-c3cccc(-c4cnc(CNC[C@@H]5CCC(=O)N5)c(OC)n4)c3Cl)c2Cl)ccc1CN1CCC(C)(O)CC1 [compound 158]
0.15 nM | COc1nc(-c2cccc(-c3cccc(-c4cnc(CNC[C@@H]5CCC(=O)N5)c(OC)n4)c3Cl)c2Cl)ccc1CN1CC[C@](C)(O)C1 [compound 159]
0.128 nM | COc1nc(-c2cccc(-c3cccc(-c4cnc(CNC[C@@H]5CCC(=O)N5)c(OC)n4)c3Cl)c2Cl)ccc1CN1CCC(CO)CC1 [compound 160]
0.167 nM | COc1nc(-c2cccc(-c3cccc(-c4cnc(CNC[C@@H]5CCC(=O)N5)c(OC)n4)c3Cl)c2Cl)ccc1CNCc1nc(=O)o[nH]1 [compound 161]
0.116 nM | COc1nc(-c2cccc(-c3cccc(-c4cnc(CNC[C@@H]5CCC(=O)N5)c(OC)n4)c3Cl)c2Cl)ccc1CNC1CCOCC1 [compound 162]
0.122 nM | COc1nc(-c2cccc(-c3cccc(-c4cnc(CNC[C@@H]5CCC(=O)N5)c(OC)n4)c3Cl)c2Cl)ccc1CN1CC(O)C1 [compound 164]
0.11 nM | COc1nc(-c2cccc(-c3cccc(-c4cnc(CN5CC(C)(CO)C5)c(OC)n4)c3Cl)c2Cl)cnc1CNC[C@@H]1CCC(=O)N1 [compound 175]
0.111 nM | COc1nc(-c2cccc(-c3cccc(-c4cnc(CN5CC(CO)C5)c(OC)n4)c3Cl)c2Cl)cnc1CNC[C@@H]1CCC(=O)N1 [compound 176]
0.1 nM | COc1nc(-c2cccc(-c3cccc(-c4cnc(CNC[C@H]5CCC[C@@H]5O)c(OC)n4)c3Cl)c2Cl)cnc1CNC[C@@H]1CCC(=O)N1 [compound 186]
0.12 nM | COC(=O)NC1CCN(Cc2ncc(-c3cccc(-c4cccc(-c5cnc(CNC[C@@H]6CCC(=O)N6)c(OC)n5)c4Cl)c3Cl)nc2OC)C1 (stereo partly drawn) [compound 188]
0.094 nM | COc1nc(-c2cccc(-c3cccc(-c4cnc(CNCC5CN(C(C)=O)C5)c(OC)n4)c3Cl)c2Cl)cnc1CNCC1CN(C(C)=O)C1 [compound 189]
0.143 nM | COc1nc(-c2cccc(-c3cccc(-c4cnc(CNC5CN(C(C)=O)C5)c(OC)n4)c3Cl)c2Cl)cnc1CNC[C@@H]1CCC(=O)N1 [compound 191]
0.156 nM | COc1nc(-c2cccc(-c3cccc(-c4cnc(CN5CC6(C5)CN(C(C)=O)C6)c(OC)n4)c3Cl)c2Cl)cnc1CNC[C@H]1CCC(=O)N1 [compound 192]
0.133 nM | COc1nc(-c2cccc(-c3cccc(-c4cnc(CN5CCC6(CNC(=O)C6)C5)c(OC)n4)c3Cl)c2Cl)cnc1CNC[C@H]1CCC(=O)N1 (stereo partly drawn) [compound 193]
0.149 nM | COc1nc(-c2cccc(-c3cccc(-c4cnc(CNC5CCN(C(C)=O)C5)c(OC)n4)c3Cl)c2Cl)cnc1CNC[C@H]1CCC(=O)N1 (stereo partly drawn) [compound 194]
0.064 nM | COc1nc(-c2cccc(-c3cccc(-c4cnc(CN[C@H]5CC[C@H](NC(C)=O)CC5)c(OC)n4)c3Cl)c2Cl)cnc1CNC[C@H]1CCC(=O)N1 [compound 195]
